ChEMBL document CHEMBL4184137, “Lysine Deacetylase Inhibitors in Parasites: Past, Present, and Future Perspectives” (J Med Chem, 2017)
pIC50: −log10 of the molar value.

What was measured:
Plasmodium falciparum [1] = experiment: Antimalarial activity against Plasmodium falciparum using Malstat reagent by parasite lactate dehydrogenase assay; format: functional, organism-based
[2] = Selectivity index, ratio of IC50 for African green monkey Vero cells to IC50 for Plasmodium falciparum; format: toxicity; settings: read-out: Ratio IC50
Vero = experiment: Cytotoxicity against African green monkey Vero cells by neutral red assay; format: cell-based; settings: Chlorocebus sabaeus
Plasmodium falciparum [3] = experiment: Gametocytocidal activity against transgenic GFP-fused Plasmodium falciparum NF54 […] gametocytes after 72 hrs by Mitotracker Red CMH2XRos staining-based confocal microscopic method; format: functional, organism-based; settings: NF54, 72 h
Plasmodium falciparum [4] = experiment: Antimalarial activity against asexual-stage of Plasmodium falciparum 3D7 after 24 hrs by microbeta scintillation counting-based [3H]-hypoxanthine incorporation assay; format: functional, organism-based
NFF = experiment: Cytotoxicity against human NFF cells after 72 hrs by SRB assay; format: cell-based
[5] = Selectivity index, ratio of IC50 for human NFF cells to IC50 for asexual-stage of Plasmodium falciparum 3D7; format: toxicity; settings: read-out: Ratio IC50
[6] = Selectivity index, ratio of IC50 for human NFF cells to IC50 for transgenic GFP-fused Plasmodium falciparum NF54 […] gametocyte; format: toxicity; settings: read-out: Ratio IC50
[7] = Selectivity index, ratio of IC50 for human NFF cells to IC50 for Plasmodium falciparum; format: toxicity; settings: read-out: Ratio IC50
[8] = Selectivity index, ratio of IC50 for HEK293 cells to IC50 for Plasmodium falciparum; format: toxicity; settings: human, read-out: Ratio IC50
[9] = Selectivity index, ratio of IC50 for HEK293 cells to IC50 for Trypanosoma brucei brucei; format: toxicity; settings: human, read-out: Selectivity Index
Histone deacetylase = molecular target: T1, Histone deacetylase (Plasmodium falciparum, UniProt Q9XYC7); experiment: Inhibition of HDAC1 in Plasmodium falciparum 3D7 nuclear extract using Ac-RGK(Ac)-AMC fluorogenic peptide as substrate preincubated for 1 hr followed by substrate addition measured after 10 min by fluorescence assay
T1 sequence (Q9XYC7 whole entry): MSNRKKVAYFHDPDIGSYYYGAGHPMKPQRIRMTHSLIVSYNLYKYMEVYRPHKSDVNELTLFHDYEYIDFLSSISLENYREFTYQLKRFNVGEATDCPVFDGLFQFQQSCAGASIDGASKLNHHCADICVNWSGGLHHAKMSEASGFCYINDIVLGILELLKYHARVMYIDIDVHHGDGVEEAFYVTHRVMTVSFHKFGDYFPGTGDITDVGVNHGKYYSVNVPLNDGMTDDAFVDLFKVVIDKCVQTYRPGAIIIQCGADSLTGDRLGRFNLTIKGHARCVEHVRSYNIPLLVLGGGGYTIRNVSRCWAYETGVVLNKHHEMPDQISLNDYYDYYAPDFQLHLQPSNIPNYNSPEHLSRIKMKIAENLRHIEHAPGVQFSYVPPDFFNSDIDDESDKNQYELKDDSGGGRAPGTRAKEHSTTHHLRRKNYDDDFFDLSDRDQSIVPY

[10] = Selectivity index, ratio of IC50 for human NFF cells to IC50 for Trypanosoma brucei brucei; format: toxicity; settings: read-out: Selectivity Index
[11] = molecular target: T2, Histone deacetylase (Plasmodium falciparum) (UniProt Q9XYC7); experiment: Inhibition of recombinant HDAC1 in recombinant Plasmodium falciparum at 1 uM using Ac-RGK(Ac)-AMC fluorogenic peptide as substrate preincubated for 1 hr followed by substrate addition measured after 10 min by fluorescence assay
T2 sequence (whole entry): T1 sequence (Q9XYC7 whole entry)

`Cn1cc(C(=O)Cc2ccccc2)cc1/C=C/C(=O)NO` gave a pIC50 (Plasmodium falciparum [1]) of 5.40 to 5.92, a selectivity ratio [2] of 5 to 17 and a pIC50 (Vero) of less than 4.70.
Work on `CC(C)(C)c1ccc(NC(=O)NOCCCCCC(=O)NO)cc1` yielded a pIC50 (Plasmodium falciparum [3]) of 5.46, a pIC50 (Plasmodium falciparum [4]) of 6.80 and a pIC50 (NFF) of 5.31. It also gave a selectivity ratio [5] of 31 and a selectivity ratio [6] of 2.
Work on `C/C=C1\NC(=O)[C@H]2CSSCC/C=C/[C@H](CC(=O)N[C@H](C(C)C)C(=O)N2)OC(=O)[C@H](C(C)C)NC1=O` [ROMIDEPSIN] yielded a selectivity ratio [7] of less than 1, a selectivity ratio [8] of less than 1 and a selectivity ratio [9] of less than 1. For the same molecule, the pIC50 (Histone deacetylase) was 9.05, the selectivity ratio [10] was less than 1 and the inhibition [11] was 48%.
